Test results from patent publication US11566233B2, “Three-dimensional in vitro lung model, process for preparing said model, and its use for determining and /or predicting the sensitizing effects of inhalable products” (LUXEMBOURG INSTITUTE OF SCIENCE AND TECHNOLOGY, priority 2016, dated 2023).
Where two headings read alike, the source gives them in different places. Each block holds one molecule with its values, some of them ahead of it.

How the values were obtained:
[1] = system: THP-1 cells in the tetraculture lung model; assay: Flow cytometry of cell surface marker expression on THP-1 cells in the tetraculture lung model; assay type: cell-based, human; settings: 24 h exposure, compared to control
Method: 24 h and 48 h after exposure to the Vitrocell Cloud, THP-1 DC were recovered in the medium in the well. After centrifugation for 5 minutes at 300 g, cells were washed with PBS and staining was performed using antibodies listed in table 1 below (following the manufacturer's recommended dilutions) and the corresponding isotype control to determine the unspecific binding of the antibody and ensure the observed staining is due to specific binding rather than an artifact.
Relative Fluorescence Intensity (RFI) was used as an indicator of OX40L, IL7ra, CD40 and CD86 and CD54 expression and was calculated by the following formula I: […]
(§1) To measure the expression of cell surface markers and the release of different cytokines, the cells of inserts prepared according to example 1 above were exposed to the CV75 or, when it was not possible to reach 75% of viability, cells were exposed to the maximum of solubility of the compounds.
(§2) After 24 h and 48 h, THP-1 cells were recovered, stained and analysed using a flow cytometer according to the protocol detailed in example 2 above. Supernatants were recovered for cytokines measurements.

[2] = system: THP-1 cells in monoculture; assay: Cell surface marker expression on THP-1 cells in monoculture, submerged conditions (h-CLAT reproduction); assay type: cell-based, human; settings: 24 h exposure
From the text: In parallel, THP-1 cells were exposed in submerged conditions in monoculture in order to reproduce the data obtained using the h-CLAT (human cell line activation test) assay. The h-CLAT assay is based on the property of chemicals to activate dendritic cells, property which is common to both skin and respiratory sensitizers. The h-CLAT is an in vitro model validated at the European level (ECVAM validation).
On a comparative purpose, the expression of CD86 and CD54 cell surface markers were also evaluated in the h-CLAT. It is currently recommended to use the h-CLAT to assess the skin sensitizing potential of chemicals. As skin and lung share the DC activation property, h-CLAT may be considered to be used to assess also the respiratory sensitizing potential of chemicals. To remind, there is no validated models to assess respiratory sensitization available on the market yet.
As different antibodies, fluorochromes and equipment were used to measure the CDs expression, threshold level obtained in literature on the h-CLAT could not be compared to those measured in this example.

[3] = system: tetraculture in vitro lung model; assay: Cytokines released in the tetraculture in vitro lung model; assay type: cell-based, human; parameters: key: ?: indicates a decrease of cytokine release compared to the vehicle control; ?: indicates an increase of cytokine release compared to the vehicle control; =: indicates no change observed between exposure and the vehicle control; ?: indicates a decrease of cytokine release compared to the vehicle control; ?: indicates an increase of cytokine release compared to the vehicle control
Method: as §1, §2
Table 2 below gives a summary of the results obtained for all cytokines measured, wherein, ? indicates a decrease of cytokine release compared to the vehicle control, ? indicates an increase of cytokine release compared to the vehicle control and =indicates no change observed between exposure and the vehicle control: […]

[4] = system: THP-1 cells in monoculture; assay: Viability of THP-1 cells in monoculture in submerged conditions; assay type: cell-based, human; settings: 24 h exposure, up to maximum of solubility in medium containing 0.2% of DMSO
Method: (§3) FIGS. 11A and 11B are diagrams showing viability of THP-1 cells after 24 h exposure to PA (FIG. 11A) and TMA (FIG. 11B) in monoculture in submerged conditions. In this figure, the highest tested concentrations represent the maximum of solubility of the compounds in medium containing 0.2% of DMSO.

[5] = Solubility in medium containing 0.2% of DMSO; assay type: physicochemical
Method: as §3

[6] = system: tetraculture lung model (A549, EA.hy926, THP-1, Mϕ-THP-1); assay: Alamar Blue viability of the tetraculture lung model after Vitrocell Cloud exposure at the air-liquid interface; settings: 24 h and 48 h after exposure
Method: (§4) Example of exposure of the inserts is performed in a Vitrocell® Cloud device (Waldkirch, Germany), previously cleaned under sterile conditions, and maintained at 37° C. The inserts are placed into the device. A cloud, from 200 to 500 μL of the product to be tested) is then distributed homogenously inside the chamber and starts to settle on the surface. After about 10 to 30 minutes (depending on the injected product), the cloud is settled by single droplet sedimentation. The concentration which is deposited on the insert can be calculated in g/cm^2.
(§5) Inserts prepared according to example 1 were exposed to chemical compounds and to positive controls using the Vitrocell® Cloud system (Vitrocell, Waldkirch, Germany). All compounds were diluted in a 1/1(v/v) solution of sterile saline solution and PBS.
(§6) Inserts were exposed to a range of concentrations to chemical respiratory irritants and sensitizers in order to determine first the viability of the tissue using the Alamar Blue assay. […] Upon entering cells, resazurin is reduced to pink highly fluorescent resorufin. Viable cells continuously convert resazurin to resorufin. The fluorescence is proportional to cell viability.
(§7) Following 24 h and 48 h exposure to the compounds through the Vitrocell cloud, cells were incubated for 1 hour to 400 μM of Alamar Blue diluted in Coculture 1% medium.
(§8) Viability was assessed using the Alamar Blue assay 24 h and 48 h after exposure according to the protocol detailed in example 2 above.
(§9) The concentration leading to 25% of cytotoxicity (meaning 75% of viability: CV75) relatively compared to the vehicle control was determined using the graphs presented in example 2.

[7] = system: tetraculture lung model (A549, EA.hy926, THP-1, Mϕ-THP-1)
Method: as §4, §5, §6, §7, §8, §9

Molecule: C=CC=O [Acrolein]
expression of cell surface marker CD54 on THP-1 cells [1]: no increase
expression of cell surface marker CD86 on THP-1 cells [1]: no increase
expression of cell surface marker IL7ra on THP-1 cells [1]: decrease
expression of CD54 on THP-1 cells [2]: increase
RANTES release compared to the vehicle control ([3]; 24 h): =
MCP-1 release compared to the vehicle control ([3]; 48 h): =

Molecule: O=C1OC(=O)c2ccccc21 [PA, Phthalic Anhydrid]
expression of cell surface marker CD54 on THP-1 cells [1]: Increases
expression of cell surface marker CD86 on THP-1 cells [1]: Increases
IL-7 release compared to the vehicle control ([3]; 24 h): =
MCP-1 release compared to the vehicle control ([3]; 24 h): =
IL-7 release compared to the vehicle control ([3]; 48 h): =
cytotoxicity of THP-1 cells [4]: not possible to reach any cytotoxity
solubility [5]: low solubility
cell viability of the alveolar tissue model (in words) [6]: decrease in viability

solubility [5]: low solubility
Molecule: O=C(O)c1ccc2c(c1)C(=O)OC2=O [TMA, Trimellitic Anhydride]
expression of cell surface marker CD54 on THP-1 cells [1]: Increases
expression of cell surface marker CD86 on THP-1 cells [1]: Increases
expression of CD86 on THP-1 cells [2]: lower than the vehicle control
IL-7 release compared to the vehicle control ([3]; 24 h): =
MCP-1 release compared to the vehicle control ([3]; 24 h): =
IL-7 release compared to the vehicle control ([3]; 48 h): =
IL-10 release compared to the vehicle control ([3]; 48 h): =
MCP-1 release compared to the vehicle control ([3]; 48 h): =
cytotoxicity of THP-1 cells [4]: not possible to reach any cytotoxity
cell viability of the alveolar tissue model (in words) [6]: decrease in viability

B1: Bet v1: additional known protein sensitizer; important protein allergen of pollen (protein, UniProt P15494 2-160, looked up)
Major pollen allergen Bet v …: GVFNYETETTSVIPAARLFKAFILDGDNLFPKVAPQAISSVENIEGNGGPGTIKKISFPEGFPFKYVKDRVDEVDHTNFKYNYSVIEGGPIGDTLEKISNEIKIVATPDGGSILKISNKYHTKGDHEVKAEQVKASKEMGETLLRAVESYLLAHSDAYN
cell viability of the alveolar tissue model (in words) [7]: No effect
